Reference: patent US10968225B2, “Compounds and compositions for the treatment of cystic fibrosis” (Fondazione Istituto Italiano Di Tecnologia, priority 2017, dated 2021)
pEC50: −log10 of the molar value. Where a name gives a salt, the structure may show the parent alone.

These compounds were tested against T1, mutant CFTR (Homo sapiens, UniProt P13569, DEL508-508) (assay: Fluorescence (HS-YFP) assay for CFTR activity, corrector assay). Details: CFBE41o- and FRT cells with stable expression of mutant CFTR, read-out: activity (EC50).
T1 construct: expressed in transfected cells
Assay type: cell-based

T1 sequence (P13569 with tags, fused parts or gaps DEL508-508): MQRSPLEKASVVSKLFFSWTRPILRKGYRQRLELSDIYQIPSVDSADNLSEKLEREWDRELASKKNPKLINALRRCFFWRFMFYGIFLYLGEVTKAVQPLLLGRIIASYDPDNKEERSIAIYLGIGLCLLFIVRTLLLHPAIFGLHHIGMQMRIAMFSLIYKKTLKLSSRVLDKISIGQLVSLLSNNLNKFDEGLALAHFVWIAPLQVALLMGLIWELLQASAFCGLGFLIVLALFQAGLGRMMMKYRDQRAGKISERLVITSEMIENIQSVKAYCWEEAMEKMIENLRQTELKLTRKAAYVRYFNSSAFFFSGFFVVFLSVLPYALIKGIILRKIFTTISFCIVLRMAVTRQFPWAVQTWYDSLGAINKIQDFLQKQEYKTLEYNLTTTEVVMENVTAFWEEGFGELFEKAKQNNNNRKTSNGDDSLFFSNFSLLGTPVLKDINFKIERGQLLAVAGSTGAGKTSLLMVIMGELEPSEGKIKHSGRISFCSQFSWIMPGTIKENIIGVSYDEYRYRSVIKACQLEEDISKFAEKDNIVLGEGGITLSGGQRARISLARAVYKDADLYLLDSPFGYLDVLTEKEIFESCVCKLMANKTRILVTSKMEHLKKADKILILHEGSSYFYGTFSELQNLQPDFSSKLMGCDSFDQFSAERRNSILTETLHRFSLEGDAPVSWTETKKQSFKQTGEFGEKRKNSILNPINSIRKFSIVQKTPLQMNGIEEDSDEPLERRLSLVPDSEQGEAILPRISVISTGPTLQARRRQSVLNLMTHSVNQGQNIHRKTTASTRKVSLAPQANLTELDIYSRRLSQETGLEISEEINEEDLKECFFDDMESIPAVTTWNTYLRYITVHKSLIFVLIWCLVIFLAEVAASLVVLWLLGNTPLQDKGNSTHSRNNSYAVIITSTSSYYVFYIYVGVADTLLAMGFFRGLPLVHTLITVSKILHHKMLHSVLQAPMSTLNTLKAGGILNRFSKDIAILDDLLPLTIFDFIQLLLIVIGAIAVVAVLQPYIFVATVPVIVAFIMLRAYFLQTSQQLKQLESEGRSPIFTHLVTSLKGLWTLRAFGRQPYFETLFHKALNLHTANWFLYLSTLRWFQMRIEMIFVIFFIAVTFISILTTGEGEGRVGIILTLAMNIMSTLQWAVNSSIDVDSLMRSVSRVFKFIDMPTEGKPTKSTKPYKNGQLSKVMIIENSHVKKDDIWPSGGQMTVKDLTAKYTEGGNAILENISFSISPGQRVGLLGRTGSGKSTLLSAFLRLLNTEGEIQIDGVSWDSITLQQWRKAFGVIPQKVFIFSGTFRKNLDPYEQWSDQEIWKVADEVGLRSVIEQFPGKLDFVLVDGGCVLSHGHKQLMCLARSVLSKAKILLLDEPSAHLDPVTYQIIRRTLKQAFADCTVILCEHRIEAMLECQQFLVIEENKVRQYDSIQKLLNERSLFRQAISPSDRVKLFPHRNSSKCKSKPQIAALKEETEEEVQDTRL

| SMILES | pEC50 |
| --- | --- |
| Cc1nc2cc(F)c(NC(=O)c3cccc(-n4nc(C(F)(F)F)c5c4CCN(C)C5)c3)cc2o1 [Compound 047, N-(5-Fluoro-2-methyl-1,3-benzoxazol-6-yl)-3-[5-methyl-3-(trifluoromethyl)-6,7-dihydro-4H-pyrazolo[4,3-c]pyridin-1-yl]benzamide] | < 5.70 |
| CN1Cc2c(C(F)(F)F)nn(-c3cccc(C(=O)N(C)c4ccc5c(c4)OC(F)(F)O5)c3)c2C(Oc2ccc(C(=O)O)cc2)C1 (centres unmarked) [Compound 274, Ammonium 4-[[1-[3-[(2,2-difluoro-1,3-benzodioxol-5-yl)-methyl-carbamoyl]phenyl]-5-methyl-3-(trifluoromethyl)-6,7-dihydro-4H-pyrazolo[4,3-c]pyridin-7-yl]oxy]benzoate] | > 6.00 |
| Cc1cc2ncc(N(C)C(=O)c3cccc(-n4nc(C(F)(F)F)c5c4C(Oc4ccc(C(=O)O)cc4)COC5)c3)cn2n1 (racemic) [Compound 294, 4-[[1-[3-[Methyl-(2-methylpyrazolo[1,5-a]pyrimidin-6-yl)carbamoyl]phenyl]-3-(trifluoromethyl)-6,7-dihydro-4H-pyrano[4,3-c]pyrazol-7-yl]oxy]benzoic acid] | > 6.00 |
| CN(C(=O)c1cccc(-n2nc(C(F)(F)F)c3c2C(Oc2ccc(C(N)=O)cc2)CCC3)c1)c1ccc2c(c1)OC(F)(F)O2 (single isomer, unassigned) [Compound 285, (R) or (S)-3-[7-(4-Carbamoylphenoxy)-3-(trifluoromethyl)-4,5,6,7-tetrahydroindazol-1-yl]-N-(2,2-difluoro-1,3-benzodioxol-5-yl)-N-methyl-benzamide] | > 6.00 |
| COc1cc(N(C)C(=O)c2cccc(-n3nc(C(F)(F)F)c4c3C(Oc3ccc(C(=O)O)cc3)CCC4)c2)ccn1 (racemic) [Compound 316, 4-[[1-[3-[(2-methoxy-4-pyridyl)-methyl-carbamoyl]phenyl]-3-(trifluoromethyl)-4,5,6,7-tetrahydroindazol-7-yl]oxy]benzoic acid] | 5.70 to 6.00 |
| CN(C(=O)c1cccc(-n2nc(C(F)(F)F)c3c2C(Oc2ccc(C(=O)O)cc2)CCC3)c1)c1ccc2c(c1)OCC2 (single isomer, unassigned) [Compound 280, (R) or (S)-4-[[(1-[3-[2,3-dihydrobenzofuran-6-yl(methyl)carbamoyl]phenyl]-3-(trifluoromethyl)-4,5,6,7-tetrahydroindazol-7-yl]oxy]benzoic acid] | > 6.00 |
| CN(C(=O)c1cccc(-n2nc(C(F)(F)F)c3c2C(Oc2ccc(C(=O)O)cc2)COC3)c1)c1ccnc(OC(F)F)c1 (single isomer, unassigned) [Compound 291, (S) or (R)-4-[[1-[3-[[2-(difluoromethoxy)-4-pyridyl]-methyl-carbamoyl]phenyl]-3-(trifluoromethyl)-6,7-dihydro-4H-pyrano[4,3-c]pyrazol-7-yl]oxy]benzoic acid] | 5.70 to 6.00 |
| COC(=O)N1CCc2c(c(C(F)(F)F)nn2-c2cccc(C(=O)N(C)c3ccc4c(c3)OCO4)c2)C1 [Compound 009, Methyl 1-[3-[1,3-benzodioxol-5-yl(methyl)carbamoyl]phenyl]-3-(trifluoromethyl)-6,7-dihydro-4H-pyrazolo[4,3-c] pyridine-5-carboxylate] | > 6.00 |
| CN(C(=O)c1cccc(-n2nc(C(F)(F)F)c3c2C(Oc2ccc(C(=O)O)cc2)CCC3)c1)c1cccc(OC(F)F)c1 (racemic) [Compound 266, 4-[[1-[3-[[3-(Difluoromethoxy)phenyl]-methyl-carbamoyl]phenyl]-3-(trifluoromethyl)-4,5,6,7-tetrahydroindazol-7-yl]oxy]benzoic acid] | 5.70 to 6.00 |
| CN(C(=O)c1cccc(-n2nc(C(F)(F)F)c3c2C[C@@H]2CC[C@H]3N2C(=O)C(C)(C)C)c1)c1ccc2c(c1)OCO2 (single isomer, unassigned) [Compound 088, (4R,7S)- or (4S,7R)—N-(Benzo[d][1,3]dioxol-5-yl)-N-methyl-3-[(9-pivaloyl-3-(trifluoromethyl)-5,6,7,8-tetrahydro-4,7-epiminocyclohepta[c]pyrazol-1(4H)-yl)]benzamide] | > 6.00 |
| Cc1cc2ncc(N(C)C(=O)c3cccc(-n4nc(C(F)(F)F)c5c4[C@@H](Oc4ccc(C(=O)O)cc4)CCC5)c3)cn2n1 (single isomer, unassigned) [Compound 218, (R) or (S)-4-[[1-[3-[Methyl-(2-methylpyrazolo[1,5-a]pyrimidin-6-yl)carbamoyl]phenyl]-3-(trifluoromethyl)-4,5,6,7-tetrahydroindazol-7-yl]oxy]benzoic acid] | 5.70 to 6.00 |
| CN1CCc2c(C(F)(F)F)nn(-c3cccc(C(=O)N(C)c4ccc5c(c4)OCO5)c3)c2C1 [Compound 029, N-(1,3-Benzodioxol-5-yl)-N-methyl-3-[6-methyl-3-(trifluoromethyl)-5,7-dihydro-4H-pyrazolo[3,4-c]pyridin-1-yl]benzamide] | > 6.00 |
| CN(C(=O)c1cccc(-n2nc(C(F)(F)F)c3c2C(Oc2ccc(C(=O)O)cc2)CCC3)c1)c1ccc(OC(F)F)nc1 (racemic) [Compound 314, 4-[[1-[3-[[6-(Difluoromethoxy)-3-pyridyl]-methyl-carbamoyl]phenyl]-3-(trifluoromethyl)-4,5,6,7-tetrahydroindazol-7-yl]oxy]benzoic acid] | > 6.00 |
| CN(C(=O)c1cccc(-n2nc(C(F)(F)F)c3c2CCN(S(=O)(=O)c2ccc(C#N)cc2)C3)c1)c1ccc2c(c1)OCO2 [Compound 063, N-(1,3-Benzodioxol-5-yl)-3-[5-(4-cyanophenyl)sulfonyl-3-(trifluoromethyl)-6,7-dihydro-4H-pyrazolo[4,3-c]pyridin-1-yl]-N-methyl-benzamide] | > 6.00 |
| CN(C(=O)c1cccc(-n2nc(C(F)(F)F)c3c2C(Oc2ccc(C(=O)O)cc2)COC3)c1)c1ccc2c(c1)OCC2 (racemic) [Compound 265, 4-[[1-[3-[2,3-Dihydrobenzofuran-6-yl(methyl)carbamoyl]phenyl]-3-(trifluoromethyl)-6,7-dihydro-4H-pyrano[4,3-c]pyrazol-7-yl]oxy]benzoic acid] | > 6.00 |
| Cc1nc2ccc(N(C)C(=O)c3cccc(-n4nc(C(F)(F)F)c5c4C(Oc4ncc(C(=O)O)cn4)COC5)c3)cc2o1 (racemic) [Compound 297] | > 6.00 |
| CN(C(=O)c1cccc(-n2nc(C(F)(F)F)c3c2C(Oc2ccc(C(=O)O)cc2)COC3)c1)c1ccc2c(c1)OC(F)(F)O2 (centres unmarked) [Compound 202, 4-[[1-[3-[(2,2-Difluoro-1,3-benzodioxol-5-yl)-methyl-carbamoyl]phenyl]-3-(trifluoromethyl)-6,7-dihydro-4H-pyrano[4,3-c]pyrazol-7-yl]oxy]benzoic acid] | > 6.00 |
| CN(C(=O)c1cccc(-n2nc(C(F)(F)F)c3c2C[C@@H]2CC[C@H]3N2C2CCC2)c1)c1ccc2c(c1)OCO2 (single isomer, unassigned) [Compound 131, (4R,7S)- or (4S,7R)—N-(Benzo[d][1,3]dioxol-5-yl)-3-(9-cyclobutyl-3-(trifluoromethyl)-5,6,7,8-tetrahydro-4,7-epiminocyclohepta[c]pyrazol-1(4H)-yl)-N-methylbenzamide] | > 6.00 |
| CN(C(=O)c1cccc(-n2nc(C(F)(F)F)c3c2C[C@@H]2CC[C@H]3N2C(=O)OC(C)(C)C)c1)c1ccc2c(c1)OCO2 (single isomer, unassigned) [Compound 053, (4S,7R)- or (4R,7S)-tert-Butyl-1-(3-(benzo[d][1,3]dioxol-5-yl(methyl)carbamoyl)phenyl)-3-(trifluoromethyl)-1,4,5,6,7,8-hexahydro-4,7-epiminocyclohepta[c]pyrazole-9-carboxylate] | > 6.00 |
| CC(C)c1nn(-c2cccc(C(=O)N(C)c3ccc4c(c3)OCO4)c2)c2c1CCCC2 [Compound 133, N-(1,3-Benzodioxol-5-yl)-3-(3-isopropyl-4,5,6,7-tetrahydroindazol-1-yl)-N-methyl-benzamide] | > 6.00 |
| CN(c1ccc2c(c1)OCO2)S(=O)(=O)c1cccc(-n2nc(C(F)(F)F)c3c2CCNC3)c1 [Compound 066, N-(1,3-Benzodioxol-5-yl)-N-methyl-3-[3-(trifluoromethyl)-4,5,6,7-tetrahydropyrazolo[4,3-c]pyridin-1-yl] benzenesulfonamide hydrochloride] | > 6.00 |
| CNC(=O)N1CCc2c(c(C(F)(F)F)nn2-c2cccc(C(=O)N(C)c3ccc4c(c3)OCO4)c2)C1 [Compound 056, 1-[3-[1,3-Benzodioxol-5-yl(methyl)carbamoyl]phenyl]-N-methyl-3-(trifluoromethyl)-6,7-dihydro-4H-pyrazolo[4,3-c] pyridine-5-carboxamide] | > 6.00 |
| CN(C(=O)c1cccc(-n2nc(C(F)(F)F)c3c2CCN(Cc2cccc(C(=O)O)c2)C3)c1)c1ccc2c(c1)OCO2 [Compound 025, 3-[[1-[3-[1,3-Benzodioxol-5-yl(methyl)carbamoyl]phenyl]-3-(trifluoromethyl)-6,7-dihydro-4H-pyrazolo[4,3-c]pyridin-5-yl]methyl]benzoic acid] | > 6.00 |
| CCC(C)N1CCc2c(c(C(F)(F)F)nn2-c2cccc(C(=O)N(C)c3ccc4c(c3)OCO4)c2)C1 (racemic) [Compound 024, N-(1,3-Benzodioxol-5-yl)-N-methyl-3-[5-sec-butyl-3-(trifluoromethyl)-6,7-dihydro-4H-pyrazolo[4,3-c]pyridin-1-yl]benzamide] | > 6.00 |
| CN(C(=O)c1cccc(-n2nc(C(F)(F)F)c3c2CCN(C(=O)c2ccccc2)C3)c1)c1ccc2c(c1)OCO2 [Compound 008, N-(1,3-Benzodioxol-5-yl)-3-[5-benzoyl-3-(trifluoromethyl)-6,7-dihydro-4H-pyrazolo[4,3-c]pyridin-1-yl]-N-methyl-benzamide] | > 6.00 |

Same assay, conditions: activity (EC50), CFBE41o- and FRT cells with stable expression of mutant CFTR

| SMILES | pEC50 |
| --- | --- |
| CN(C(=O)c1cccc(-n2nc(C(F)(F)F)c3c2C[C@@H]2CC[C@H]3N2C)c1)c1ccc2c(c1)OCO2 (single isomer, unassigned) [Compound 051, (4S,7R)- or (4R,7S)—N-(Benzo[d][1,3]dioxol-5-yl)-N-methyl-3-(9-methyl-3-(trifluoromethyl)-5,6,7,8-tetrahydro-4,7-epiminocyclohepta[c]pyrazol-1(4H)-yl)benzamide] | 5.70 to 6.00 |
